# Laboratory results taken from ChEMBL document CHEMBL5108045, “Identification and Utilization of a Chemical Probe to Interrogate the Roles of PIKfyve in the Lifecycle of β-Coronaviruses” (J Med Chem, 2022).
# The source made the active and inactive calls. No cut-off for these calls is given here.
# Experiments:
# SARS-CoV-2 = assay: microbe, parasite or virus in culture; conditions: Severe acute respiratory syndrome coronavirus 2, A549-ACE2
# Description: Antiviral activity against SARS-CoV-2 infected in human A549-ACE2 cells assessed as effect on cell viability pretreated with compound for 1 hr followed by viral infection measured after 2 hrs by Nano-Glo reagent based LDH assay
# [1] = biological target: T1, 1-phosphatidylinositol 3-phosphate 5-kinase (Homo sapiens, UniProt Q9Y2I7); assay: Inhibition of PIKFYVE in HEK293 cells by NanoBRET assay; assay type: cell-based
# [2] = biological target: T1, 1-phosphatidylinositol 3-phosphate 5-kinase; assay: Inhibition of human GST tagged PIKFYVE (1493 to end residues) expressed in baculovirus-infected Sf9 cells using PI(3)P:PS as substrate incubated for 60 mins in presence of ATP by ADP-Glo assay
# Murine hepatitis virus = assay: microbe, parasite or virus in culture; conditions: Murine coronavirus, Astrocytoma delayed brain tumor (DBT) cell
# Description: Antiviral activity against MHV-nLuc infected in DBT cells assessed as effect on cell viability by LDH assay
# SH-SY5Y = assay: Induction of lysosome dysfunction in human SH-SY5Y cells at 5 uM incubated for 24 hrs by lyso-tracker red DND-99 based confocal microscopic method; assay type: functional, cell-based
# [3] = Microsomal stability in CD-1 mouse liver microsomal assessed as parent compound remaining preincubated for 5 mins followed by NADPH addition measured after 30 mins by LC-TOFMS; assay type: ADME, subcellular; conditions: liver microsomes, time 35 min, read-out: Stability
# Calu-3 [4] = assay: Inhibition of lentivirus pseudotyped with SARS-CoV-2 spike glycoprotein uptake in human Calu-3 cells at 1 uM preincubated for 1 hr prior to viral infection for 12 hrs by fluorescence based analysis; assay type: functional, cell-based
# [5] = (§1) Inhibition of His-6 tagged SARS-CoV-2 spike protein uptake in human Calu-3 cells at 1 uM incubated for 1 hr by fluorescence based analysis relative control; assay type: functional
# [6] = (§2) Inhibition of His-6 tagged SARS-CoV-2 spike protein uptake in human Caco-2 cells at 1 uM incubated for 1 hr by fluorescence based analysis relative control; assay type: functional
# Calu-3 [7] = assay: as §1; assay type: functional
# Caco-2 = assay: as §2; assay type: functional
# [8] = biological target: Serine/threonine-protein kinase TAO2 (Homo sapiens) (UniProt Q9UL54); assay: Inhibition of human wild type partial length TAOK2 (M1 to A320 residues) expressed in mammalian expression system assessed as remaining activity at 1 uM by Kinomescan assay relative to control
# [9] = biological target: Mitogen-activated protein kinase kinase kinase 19 (Homo sapiens) (UniProt Q56UN5); assay: Inhibition of wild-type human partial length YSK4 (T1019 to H1328 residues) expressed in mammalian expression system assessed as residual binding level at 1 uM by Kinomescan method relative to control
# [10] = biological target: Serine/threonine-protein kinase PAK 6 (Homo sapiens) (UniProt Q9NQU5); assay: Inhibition of human wild type PAK6 assessed as remaining activity at 1 uM by MRC screening assay relative to control
# [11] = biological target: Serine/threonine-protein kinase PAK 4 (Homo sapiens) (UniProt O96013); assay: Inhibition of human wild type PAK4 assessed as remaining activity at 1 uM by MRC screening assay relative to control
# [12] = biological target: Phosphatidylinositol 5-phosphate 4-kinase type-2 gamma (Homo sapiens) (UniProt Q8TBX8); assay: Inhibition of human wild type full length PIP5K2C (M1 to A421 residues) expressed in mammalian expression system assessed as remaining activity at 1 uM by Kinomescan assay relative to control
# [13] = biological target: Serine/threonine-protein kinase TAO3 (Homo sapiens) (UniProt Q9H2K8); assay: Inhibition of human wild type partial length TAOK3 (M1 to T316 residues) expressed in mammalian expression system assessed as remaining activity at 1 uM by Kinomescan assay relative to control
# [14] = biological target: Myosin light chain kinase family member 4 (Homo sapiens) (UniProt Q86YV6); assay: Inhibition of human wild type […] length MYLK4 (V79 to S380 residues) expressed in bacterial expression system assessed as remaining activity at 1 uM by Kinomescan assay relative to control
# [15] = biological target: Serine/threonine-protein kinase TAO1 (Homo sapiens) (UniProt Q7L7X3); assay: Inhibition of human wild type TAOK1 assessed as remaining activity at 1 uM by MRC screening assay relative to control
# [16] = biological target: Mitogen-activated protein kinase kinase kinase kinase 2 (Homo sapiens) (UniProt Q12851); assay: Inhibition of human wild type partial length MAP4K2 (M1 to G318 residues) expressed in mammalian expression system assessed as remaining activity at 1 uM by Kinomescan assay relative to control
# [17] = biological target: Mitogen-activated protein kinase kinase kinase kinase 5 (Homo sapiens) (UniProt Q9Y4K4); assay: Inhibition of human wild type MAP4K5 assessed as remaining activity at 1 uM by MRC screening assay relative to control
# [18] = biological target: Serine/threonine-protein kinase PAK 5 (Homo sapiens) (UniProt Q9P286); assay: Inhibition of human wild type PAK7 expressed in Escherichia coli assessed as remaining activity using RRRLSFAEPG peptide substrate at 1 uM by MRC screening assay relative to control
# [19] = biological target: Mitogen-activated protein kinase kinase kinase 3 (Homo sapiens) (UniProt Q99759); assay: Inhibition of human wild type partial length MAP3K3 (E320 to Y626 residues) expressed in mammalian expression system assessed as remaining activity at 1 uM by Kinomescan assay relative to control
# [20] = biological target: Mitogen-activated protein kinase kinase kinase 2 (Homo sapiens) (UniProt Q9Y2U5); assay: Inhibition of wild-type human partial length MAP3K2 (S315 to H619 residues) expressed in mammalian expression system assessed as residual binding level at 1 uM by Kinomescan method relative to control
# [21] = biological target: Phosphatidylinositol 4-phosphate 5-kinase type-1 gamma (Homo sapiens) (UniProt O60331); assay: Inhibition of human wild type full length PIP5K1C (M1 to T668 residues) expressed in mammalian expression system assessed as remaining activity at 1 uM by Kinomescan assay relative to control
# [22] = biological target: cAMP-dependent protein kinase catalytic subunit PRKX (Homo sapiens) (UniProt P51817); assay: Inhibition of human wild type partial length PRKX (M1 to F358 residues) expressed in bacterial expression system assessed as remaining activity at 1 uM by Kinomescan assay relative to control
# [23] = biological target: Tyrosine-protein kinase JAK2 (Homo sapiens) (UniProt O60674); assay: Inhibition of human wild type JAK2 (JH1) domain assessed as remaining activity at 1 uM by MRC screening assay relative to control
# [24] = biological target: Dual serine/threonine and tyrosine protein kinase (Homo sapiens) (UniProt Q6XUX3); assay: Inhibition of human wild type full length RIPK5 (M1 to T929 residues) expressed in mammalian expression system assessed as remaining activity at 1 uM by Kinomescan assay relative to control
# [25] = biological target: Dual specificity mitogen-activated protein kinase kinase 4 (Homo sapiens) (UniProt P45985); assay: Inhibition of human wild type partial length MEK4 (S84 to D399 residues) expressed in mammalian expression system assessed as remaining activity at 1 uM by Kinomescan assay relative to control
# [26] = biological target: Citron Rho-interacting kinase (Homo sapiens) (UniProt O14578); assay: Inhibition of wild-type human partial length CIT (M68 to E432 residues) expressed in bacterial expression system assessed as residual binding level at 1 uM by Kinomescan method relative to control
# [27] = biological target: Microtubule-associated serine/threonine-protein kinase 1 (Homo sapiens) (UniProt Q9Y2H9); assay: Inhibition of wild-type human partial length MAST1 (S346 to V730 residues) expressed in mammalian expression system assessed as residual activity at 1 uM by Kinomescan method relative to control
# T1 sequence (Q9Y2I7 whole entry): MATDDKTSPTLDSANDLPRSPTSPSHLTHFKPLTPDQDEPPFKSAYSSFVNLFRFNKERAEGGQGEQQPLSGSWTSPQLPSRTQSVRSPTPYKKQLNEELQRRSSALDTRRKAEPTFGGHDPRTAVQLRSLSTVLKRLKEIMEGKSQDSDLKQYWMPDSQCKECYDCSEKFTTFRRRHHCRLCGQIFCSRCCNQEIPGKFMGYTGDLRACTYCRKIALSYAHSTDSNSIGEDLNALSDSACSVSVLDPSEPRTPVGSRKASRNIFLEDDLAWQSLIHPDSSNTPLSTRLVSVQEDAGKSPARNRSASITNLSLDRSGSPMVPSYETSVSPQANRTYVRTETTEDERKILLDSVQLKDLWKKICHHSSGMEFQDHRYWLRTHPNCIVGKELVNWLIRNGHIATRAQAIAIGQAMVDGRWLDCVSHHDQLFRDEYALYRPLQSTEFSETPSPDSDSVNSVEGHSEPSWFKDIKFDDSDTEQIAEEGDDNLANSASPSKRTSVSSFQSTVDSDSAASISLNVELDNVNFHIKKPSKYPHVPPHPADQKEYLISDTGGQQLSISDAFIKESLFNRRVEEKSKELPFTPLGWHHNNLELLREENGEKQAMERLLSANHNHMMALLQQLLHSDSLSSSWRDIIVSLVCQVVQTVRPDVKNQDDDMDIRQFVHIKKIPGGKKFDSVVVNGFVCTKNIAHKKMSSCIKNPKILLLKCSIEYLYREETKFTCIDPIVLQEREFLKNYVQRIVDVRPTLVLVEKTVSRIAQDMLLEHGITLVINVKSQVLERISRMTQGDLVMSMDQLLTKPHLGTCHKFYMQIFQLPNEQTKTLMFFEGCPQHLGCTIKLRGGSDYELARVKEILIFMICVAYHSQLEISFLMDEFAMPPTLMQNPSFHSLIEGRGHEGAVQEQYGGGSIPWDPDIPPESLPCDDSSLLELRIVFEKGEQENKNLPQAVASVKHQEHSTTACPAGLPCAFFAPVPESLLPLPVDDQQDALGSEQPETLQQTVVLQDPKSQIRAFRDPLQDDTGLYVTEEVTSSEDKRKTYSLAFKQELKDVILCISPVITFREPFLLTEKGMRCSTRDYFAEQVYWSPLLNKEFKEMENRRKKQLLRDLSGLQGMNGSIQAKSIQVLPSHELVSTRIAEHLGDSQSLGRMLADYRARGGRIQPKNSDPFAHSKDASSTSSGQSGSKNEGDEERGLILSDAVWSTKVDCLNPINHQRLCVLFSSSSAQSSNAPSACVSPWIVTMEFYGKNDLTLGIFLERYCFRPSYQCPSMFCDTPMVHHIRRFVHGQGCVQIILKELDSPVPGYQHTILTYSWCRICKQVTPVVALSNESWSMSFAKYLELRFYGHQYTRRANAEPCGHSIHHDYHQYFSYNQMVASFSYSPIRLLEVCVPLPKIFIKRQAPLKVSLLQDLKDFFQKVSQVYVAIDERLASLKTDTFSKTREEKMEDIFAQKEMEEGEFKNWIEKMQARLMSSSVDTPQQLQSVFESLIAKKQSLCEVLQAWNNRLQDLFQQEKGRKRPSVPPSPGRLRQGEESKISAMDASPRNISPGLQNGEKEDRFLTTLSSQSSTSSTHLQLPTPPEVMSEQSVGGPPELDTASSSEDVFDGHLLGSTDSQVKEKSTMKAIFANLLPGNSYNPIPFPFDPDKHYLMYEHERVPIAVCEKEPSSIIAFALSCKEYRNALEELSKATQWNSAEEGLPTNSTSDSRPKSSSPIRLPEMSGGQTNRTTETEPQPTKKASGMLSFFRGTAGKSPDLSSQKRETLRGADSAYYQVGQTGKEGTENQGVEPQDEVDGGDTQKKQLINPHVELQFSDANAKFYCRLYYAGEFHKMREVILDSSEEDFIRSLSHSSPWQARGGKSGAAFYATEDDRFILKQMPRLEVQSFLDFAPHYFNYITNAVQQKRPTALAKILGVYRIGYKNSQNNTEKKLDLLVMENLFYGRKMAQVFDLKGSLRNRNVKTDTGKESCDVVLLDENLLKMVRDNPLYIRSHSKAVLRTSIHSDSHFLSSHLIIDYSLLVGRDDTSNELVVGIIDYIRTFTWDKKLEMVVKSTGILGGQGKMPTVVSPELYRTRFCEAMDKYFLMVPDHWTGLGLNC
# Chain of Serine/threonine-protein kinase PAK 6 (Homo sapiens) (Q9NQU5 whole entry, looked up): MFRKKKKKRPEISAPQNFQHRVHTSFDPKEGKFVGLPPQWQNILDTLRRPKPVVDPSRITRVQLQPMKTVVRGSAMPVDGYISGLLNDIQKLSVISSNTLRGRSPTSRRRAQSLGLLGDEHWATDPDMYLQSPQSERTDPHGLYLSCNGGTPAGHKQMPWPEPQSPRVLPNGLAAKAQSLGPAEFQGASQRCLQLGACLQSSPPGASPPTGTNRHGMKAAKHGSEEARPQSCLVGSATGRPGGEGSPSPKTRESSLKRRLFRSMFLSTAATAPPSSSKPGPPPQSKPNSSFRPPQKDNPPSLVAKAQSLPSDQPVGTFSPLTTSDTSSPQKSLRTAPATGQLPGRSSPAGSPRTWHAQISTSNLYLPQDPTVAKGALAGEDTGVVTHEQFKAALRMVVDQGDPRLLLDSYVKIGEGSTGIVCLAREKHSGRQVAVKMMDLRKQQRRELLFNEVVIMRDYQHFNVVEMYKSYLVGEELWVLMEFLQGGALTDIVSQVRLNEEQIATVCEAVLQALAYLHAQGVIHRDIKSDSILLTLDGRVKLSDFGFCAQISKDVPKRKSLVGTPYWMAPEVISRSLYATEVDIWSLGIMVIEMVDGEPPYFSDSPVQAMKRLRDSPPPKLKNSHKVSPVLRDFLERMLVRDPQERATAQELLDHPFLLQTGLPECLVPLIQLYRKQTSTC
# Chain of Serine/threonine-protein kinase TAO3 (Homo sapiens) (Q9H2K8 whole entry, the tested form may be a part): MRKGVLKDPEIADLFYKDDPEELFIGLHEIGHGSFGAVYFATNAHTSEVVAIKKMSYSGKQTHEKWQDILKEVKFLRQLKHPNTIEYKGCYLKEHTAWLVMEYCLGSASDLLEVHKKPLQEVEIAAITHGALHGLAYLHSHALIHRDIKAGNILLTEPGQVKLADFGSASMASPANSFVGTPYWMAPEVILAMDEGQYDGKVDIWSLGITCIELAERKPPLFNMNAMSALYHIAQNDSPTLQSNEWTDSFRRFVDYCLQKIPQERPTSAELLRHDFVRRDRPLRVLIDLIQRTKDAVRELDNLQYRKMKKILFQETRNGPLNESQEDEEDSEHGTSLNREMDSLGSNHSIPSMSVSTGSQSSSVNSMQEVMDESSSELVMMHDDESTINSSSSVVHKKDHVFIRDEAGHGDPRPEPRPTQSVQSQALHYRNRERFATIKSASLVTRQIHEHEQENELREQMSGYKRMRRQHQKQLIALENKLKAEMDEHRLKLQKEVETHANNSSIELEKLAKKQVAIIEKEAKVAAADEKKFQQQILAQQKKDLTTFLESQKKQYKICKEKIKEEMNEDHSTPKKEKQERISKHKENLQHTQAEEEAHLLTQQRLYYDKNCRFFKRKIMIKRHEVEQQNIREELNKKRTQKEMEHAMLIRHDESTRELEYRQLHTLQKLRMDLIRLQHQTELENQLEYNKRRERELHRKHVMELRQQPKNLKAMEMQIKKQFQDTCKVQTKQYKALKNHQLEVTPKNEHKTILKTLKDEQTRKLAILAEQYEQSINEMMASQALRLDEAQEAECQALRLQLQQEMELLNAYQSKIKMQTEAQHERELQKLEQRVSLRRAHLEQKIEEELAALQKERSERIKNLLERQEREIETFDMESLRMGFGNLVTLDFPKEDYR
# Chain of Serine/threonine-protein kinase TAO1 (Homo sapiens) (Q7L7X3 whole entry, the tested form may be a part): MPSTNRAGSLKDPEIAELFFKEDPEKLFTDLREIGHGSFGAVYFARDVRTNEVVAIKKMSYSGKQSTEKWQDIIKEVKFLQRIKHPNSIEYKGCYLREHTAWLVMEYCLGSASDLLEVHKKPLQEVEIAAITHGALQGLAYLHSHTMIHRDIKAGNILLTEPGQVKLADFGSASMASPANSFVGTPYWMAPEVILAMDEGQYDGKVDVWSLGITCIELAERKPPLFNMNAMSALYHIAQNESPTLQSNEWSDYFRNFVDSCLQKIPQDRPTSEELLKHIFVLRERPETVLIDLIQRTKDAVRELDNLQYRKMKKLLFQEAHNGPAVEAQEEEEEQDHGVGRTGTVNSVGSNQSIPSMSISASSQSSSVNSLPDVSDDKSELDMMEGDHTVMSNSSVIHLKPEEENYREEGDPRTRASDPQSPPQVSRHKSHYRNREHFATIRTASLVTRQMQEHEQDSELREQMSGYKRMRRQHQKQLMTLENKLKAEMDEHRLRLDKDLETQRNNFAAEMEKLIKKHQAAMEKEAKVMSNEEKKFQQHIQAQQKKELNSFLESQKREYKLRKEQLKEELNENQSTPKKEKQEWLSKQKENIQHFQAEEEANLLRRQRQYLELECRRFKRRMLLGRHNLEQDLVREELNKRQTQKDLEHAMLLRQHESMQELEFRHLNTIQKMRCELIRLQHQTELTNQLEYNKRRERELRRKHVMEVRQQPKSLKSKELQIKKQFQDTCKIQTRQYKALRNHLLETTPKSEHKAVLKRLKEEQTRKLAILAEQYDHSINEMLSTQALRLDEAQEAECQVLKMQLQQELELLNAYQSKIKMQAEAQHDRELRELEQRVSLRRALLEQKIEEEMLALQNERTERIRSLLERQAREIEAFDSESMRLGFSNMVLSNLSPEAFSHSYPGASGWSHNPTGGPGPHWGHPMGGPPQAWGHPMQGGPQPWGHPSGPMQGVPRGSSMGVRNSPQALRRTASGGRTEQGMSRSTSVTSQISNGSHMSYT
# Chain of Myosin light chain kinase family member 4 (Homo sapiens) (Q86YV6 whole entry, the tested form may be a part): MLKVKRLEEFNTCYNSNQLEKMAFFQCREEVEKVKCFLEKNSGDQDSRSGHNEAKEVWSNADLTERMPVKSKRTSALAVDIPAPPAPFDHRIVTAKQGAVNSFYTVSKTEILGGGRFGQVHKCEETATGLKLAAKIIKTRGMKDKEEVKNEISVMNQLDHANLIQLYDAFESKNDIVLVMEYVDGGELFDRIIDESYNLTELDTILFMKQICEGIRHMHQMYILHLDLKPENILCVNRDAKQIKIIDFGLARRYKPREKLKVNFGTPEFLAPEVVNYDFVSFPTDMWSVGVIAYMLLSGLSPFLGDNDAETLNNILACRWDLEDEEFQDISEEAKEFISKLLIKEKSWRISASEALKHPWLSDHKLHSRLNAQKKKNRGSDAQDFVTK
SMILES,IC50 [1] [µM],IC50 [2] [µM],IC50 (Murine hepatitis virus) [µM],IC50 (Murine hepatitis virus; read-out: pIC50 (converted)) [µM],also measured
CCC(CC)COC(=O)[C@H](C)N[P@](=O)(OC[C@H]1O[C@@](C#N)(c2ccc3c(N)ncnn23)[C@H](O)[C@@H]1O)Oc1ccccc1,–,–,–,–,IC50 (SARS-CoV-2): 0.0864 µM
CN(C)CC#Cc1ccc2[nH]c3c(c2c1)-c1nc(N)ncc1CC3,0.123,–,–,–,–
Nc1ncc2c(n1)-c1c([nH]c3ccc(C#Cc4ccncc4)cc13)CCC2,0.885,0.022,0.485,0.49,–
CN(C)CC#Cc1ccc2[nH]c3c(c2c1)-c1nc(N)ncc1CCC3,–,–,–,–,Activity (SH-SY5Y): Active; remaining at 0.5 h [3]: 12.6%; inhibition (Calu-3 [4]): Active; inhibition at 1 µM [5]: > 75%; inhibition at 1 µM [6]: > 91%
CN(C)CC#Cc1ccc2[nH]c3c(c2c1)-c1nc(N)ncc1CCCC3,0.683,0.43,–,–,–
Cn1cc(-c2ccc3[nH]c4c(c3c2)-c2nc(N)ncc2CCC4)cn1,1.56,0.026,0.666,0.661,–
Cn1cncc1C#Cc1ccc2[nH]c3c(c2c1)-c1nc(N)ncc1CC3,> 10,0.077,8.05,8.13,–
CC(C)C(O)C#Cc1ccc2[nH]c3c(c2c1)-c1nc(N)ncc1CCC3 (stereo not given),0.0457,–,–,–,–
CC(C)(O)C#Cc1ccc2[nH]c3c(c2c1)-c1nc(N)ncc1CCCC3,2.45,0.061,8.47,8.51,–
Nc1ncc2c(n1)-c1c([nH]c3ccc(-c4ccc(F)cc4)cc13)CCC2,0.0114,0.0093,0.071,0.0708,Activity (SH-SY5Y): Active; inhibition (Calu-3 [4]): Active; IC50 (SARS-CoV-2): 0.0733 µM
Cc1cccc(/C=N/Nc2cc(N3CCOCC3)nc(OCCc3ccccn3)n2)c1,–,–,–,–,Activity (SH-SY5Y): Active; inhibition (Calu-3 [4]): Active; inhibition (Calu-3 [7]): Active; inhibition (Caco-2): Active
Cn1cc(-c2ccc3[nH]c4c(c3c2)-c2nc(N)ncc2CC4)cn1,4.97,0.034,5.35,5.37,–
Nc1ncc2c(n1)-c1c([nH]c3ccc(C#Cc4ccncc4)cc13)CC2,2.98,–,–,–,–
Nc1ncc2c(n1)-c1c([nH]c3ccc(-c4ccc(F)cc4)cc13)CC2,0.38,0.0082,0.713,0.708,–
CC(C)(O)C#Cc1ccc2[nH]c3c(c2c1)-c1nc(N)ncc1CCC3,–,–,–,–,Activity [8]: < 10%; Activity [9]: < 10%; Activity [10]: < 10%; Activity [11]: < 10%; Activity [12]: < 10%; Activity [13]: < 10%; Activity [14]: < 10%; Activity [15]: < 10%; Activity [16]: < 10%; Activity [17]: < 10%; Activity [18]: < 10%; Activity [19]: < 10%; Activity [20]: < 10%; Activity [21]: < 10%; Activity [22]: < 10%; Activity [23]: < 10%; Activity [24]: < 10%; Activity [25]: < 10%; Activity [26]: < 10%
Nc1ncc2c(n1)-c1c([nH]c3ccc(-c4ccc(F)cc4)cc13)CCCC2,2.56,–,–,–,–
Cc1cccc(/C=N/Nc2cc(N3CCOCC3)n3nc(-c4ccncc4)cc3n2)c1,–,–,0.0404,0.0407,–
CC(C)C(O)C#Cc1ccc2[nH]c3c(c2c1)-c1nc(N)ncc1CC3 (stereo not given),1.17,–,1.92,1.91,–
Cn1cncc1C#Cc1ccc2[nH]c3c(c2c1)-c1nc(N)ncc1CCCC3,> 10,0.29,–,–,–
Nc1ncc2c(n1)-c1c([nH]c3ccc(C#CC4CC4)cc13)CCCC2,0.7,0.075,1.8,1.78,–
CC(C)(O)C#Cc1ccc2[nH]c3c(c2c1)-c1nc(N)ncc1CC3,0.22,–,–,–,–
Nc1ncc2c(n1)-c1c([nH]c3ccc(C#CC4CC4)cc13)CC2,0.3,–,–,–,–
Nc1ncc2c(n1)-c1c([nH]c3ccc(C#Cc4ccncc4)cc13)CCCC2,5.29,0.58,–,–,–
Nc1ncc2c(n1)-c1c([nH]c3ccc(C4CC4)cc13)CCCC2,–,–,> 10,> 10,IC50 (SARS-CoV-2): > 10 µM; Activity [27]: 32%
